Measurements from the supplement of paper PMC4862054.

Assays:
MDA-MB-453 [1] = settings: 72 h
In short: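 Compound dissolved in 5 µl medium was placed in 384-well plates before 20 µl of breast cancer cell suspension was added, and the plates were incubated for 72 h. Cells then received 2.5 µl CellTiter-Blue for 2 h at 37 °C, and fluorescence was read at 560/590 nm. EC50 values come from percent-inhibition dose-response fits that were censored at the highest concentration, with plates normalised to vehicle and a positive kill control and rows with a zero drug sensitivity score excluded.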

BT-474 [2] = experiment: normalised viability (% of control), CellTiter-Blue; higher = more viable cells (100 = DMSO, 0 = benzethonium chloride kill control); settings: incubation time: 72 h
Method: (§1)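 DSRT, CellTiter-Blue viability, 72 h incubation. Signal is normalised to DMSO and benzethonium chloride controls. Value is the normalised response at dose 1.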

BT-549 = experiment: as above; settings: incubation time: 72 h
Method: as §1

CAL-120 = experiment: as above; settings: incubation time: 72 h
Method: as §1

HCC1937 = experiment: as above; settings: incubation time: 72 h
Method: as §1

CAL-85-1 [3] = experiment: as above; settings: incubation time: 72 h
Method: as §1

SK-BR-3 [4] = experiment: as above; settings: incubation time: 72 h
Method: as §1

MDA-MB-436 = experiment: as above; settings: incubation time: 72 h
Method: as §1

DU-4475 = experiment: as above; settings: incubation time: 72 h
Method: as §1

MFM-223 = experiment: as above; settings: incubation time: 72 h
Method: as §1

CAL-51 = experiment: as above; settings: incubation time: 72 h
Method: as §1

HDQ-P1 = experiment: as above; settings: incubation time: 72 h
Method: as §1

MDA-MB-453 [5] = experiment: as above; settings: incubation time: 72 h
Method: as §1

CAL-148 [6] = experiment: as above; settings: incubation time: 72 h
Method: as §1

HCC1599 [7] = experiment: as above; settings: incubation time: 72 h
Method: as §1

Hs578T [8] = experiment: as above; settings: incubation time: 72 h
Method: as §1

HCC1143 [9] = experiment: as above; settings: incubation time: 72 h
Method: as §1

MDA-MB-231 [10] = experiment: as above; settings: incubation time: 72 h
Method: as §1

MDA-MB-468 [11] = experiment: as above; settings: incubation time: 72 h
Method: as §1

CAL-85-1 [12] = experiment: normalised viability (% of control), CellTiter-Blue; higher = more viable cells (about 100 = DMSO control); settings: incubation time: 72 h
In short: (§2)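 Seeded at 20 µl suspension per well onto compound-loaded 384-well plates, breast cancer cell lines were incubated 72 h. CellTiter-Blue fluorescence at 560/590 nm was then read, with each plate normalised to vehicle (100) and a positive kill control (0). Normalised viability is reported at a single listed concentration of the series.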

SK-BR-3 [13] = experiment: as above; settings: incubation time: 72 h
In short: as §2

CAL-148 [14] = experiment: as above; settings: incubation time: 72 h
In short: as §2

HCC1143 [15] = experiment: as above; settings: incubation time: 72 h
In short: as §2

BT-474 [16] = experiment: as above; settings: incubation time: 72 h
In short: as §2

CAL-85-1 [17] = experiment: as above; settings: incubation time: 72 h; remark: listed apart in the source
In short: as §2

CAL-148 [18] = experiment: as above; settings: incubation time: 72 h; remark: listed apart in the source
In short: as §2

HCC1599 [19] = experiment: as above; settings: incubation time: 72 h
In short: as §2

Hs578T [20] = experiment: as above; settings: incubation time: 72 h
In short: as §2

MDA-MB-231 [21] = experiment: as above; settings: incubation time: 72 h
In short: as §2

MDA-MB-468 [22] = experiment: as above; settings: incubation time: 72 h
In short: as §2

CN(C)C[C@@H]1CCn2cc(c3ccccc32)C2=C(C(=O)NC2=O)c2cn(c3ccccc23)CCO1 [Ruboxistaurin]
Settings	EC50, CellTiter-Blue viability [nM]
MDA-MB-453 [1]	4240

Settings	normalised viability [%]
BT-474 [2], 1 nM	118
BT-474 [16], 10000 nM	3.5
BT-549, 1 nM	91.4
CAL-51, 1 nM	98.9
CAL-85-1 [3], 1 nM	106
CAL-85-1 [12], 3 nM	105
CAL-85-1 [17], 100 nM	115
CAL-120, 1 nM	120
CAL-148 [6], 1 nM	126
CAL-148 [14], 3 nM	124
CAL-148 [18], 100 nM	111
DU-4475, 1 nM	97
HCC1143 [9], 1 nM	127
HCC1143 [15], 10 nM	135
HCC1599 [7], 1 nM	120
HCC1599 [19], 10000 nM	58.1
HCC1937, 1 nM	106
HDQ-P1, 1 nM	70.7
Hs578T [8], 1 nM	94.8
Hs578T [20], 10000 nM	42.9
MDA-MB-231 [10], 1 nM	92.5
MDA-MB-231 [21], 10000 nM	27.6
MDA-MB-436, 1 nM	101
MDA-MB-453 [5], 1 nM	98.5
MDA-MB-468 [11], 1 nM	96.8
MDA-MB-468 [22], 10000 nM	8.88
MFM-223, 1 nM	104
SK-BR-3 [4], 1 nM	99.3
SK-BR-3 [13], 10 nM	101

O=C1NC(=O)[C@@H](c2cn3c4c(cccc24)CCC3)[C@@H]1c1c[nH]c2ccccc12 [Tivantinib]
Settings	EC50, CellTiter-Blue viability [nM]
MDA-MB-453 [1]	169

Settings	normalised viability [%]
BT-474 [2], 0.1 nM	128
BT-474 [16], 1000 nM	45.4
BT-549, 0.1 nM	105
CAL-51, 0.1 nM	106
CAL-85-1 [3], 0.1 nM	101
CAL-85-1 [12], 0.3 nM	90.2
CAL-85-1 [17], 10 nM	104
CAL-120, 0.1 nM	90.1
CAL-148 [6], 0.1 nM	110
CAL-148 [14], 0.3 nM	97.9
CAL-148 [18], 10 nM	97.9
DU-4475, 0.1 nM	107
HCC1143 [9], 0.1 nM	108
HCC1143 [15], 1 nM	90.7
HCC1599 [7], 0.1 nM	85.6
HCC1599 [19], 1000 nM	79
HCC1937, 0.1 nM	86.3
HDQ-P1, 0.1 nM	83.2
Hs578T [8], 0.1 nM	101
Hs578T [20], 1000 nM	19.9
MDA-MB-231 [10], 0.1 nM	111
MDA-MB-231 [21], 1000 nM	29.8
MDA-MB-436, 0.1 nM	127
MDA-MB-453 [5], 0.1 nM	101
MDA-MB-468 [11], 0.1 nM	110
MDA-MB-468 [22], 1000 nM	42.4
MFM-223, 0.1 nM	85.6
SK-BR-3 [4], 0.1 nM	95
SK-BR-3 [13], 1 nM	105

C/C(=C\c1csc(C)n1)[C@@H]1C[C@@H]2O[C@]2(C)CCC[C@H](C)[C@H](O)[C@@H](C)C(=O)C(C)(C)[C@@H](O)CC(=O)O1 [Patupilone]
Settings	EC50, CellTiter-Blue viability [nM]
MDA-MB-453 [1]	4.4

Settings	normalised viability [%]
BT-474 [2], 0.1 nM	97.7
BT-474 [16], 1000 nM	25.4
BT-549, 0.1 nM	113
CAL-51, 0.1 nM	102
CAL-85-1 [3], 0.1 nM	93.4
CAL-85-1 [12], 0.3 nM	95.2
CAL-85-1 [17], 10 nM	33.9
CAL-120, 0.1 nM	94.6
CAL-148 [6], 0.1 nM	105
CAL-148 [14], 0.3 nM	96.3
CAL-148 [18], 10 nM	32.3
DU-4475, 0.1 nM	98.7
HCC1143 [9], 0.1 nM	102
HCC1143 [15], 1 nM	91.6
HCC1599 [7], 0.1 nM	97.3
HCC1599 [19], 1000 nM	79.3
HCC1937, 0.1 nM	95.6
HDQ-P1, 0.1 nM	112
Hs578T [8], 0.1 nM	118
Hs578T [20], 1000 nM	13.2
MDA-MB-231 [10], 0.1 nM	129
MDA-MB-231 [21], 1000 nM	30.7
MDA-MB-436, 0.1 nM	116
MDA-MB-453 [5], 0.1 nM	97.5
MDA-MB-468 [11], 0.1 nM	101
MDA-MB-468 [22], 1000 nM	54.8
MFM-223, 0.1 nM	104
SK-BR-3 [4], 0.1 nM	102
SK-BR-3 [13], 1 nM	112

CC[C@]1(O)C[C@H]2CN(CCc3c([nH]c4ccccc34)[C@@](C(=O)OC)(c3cc4c(cc3OC)N(C=O)[C@H]3[C@@](O)(C(=O)OC)[C@H](OC(C)=O)[C@]5(CC)C=CCN6CC[C@]43[C@@H]65)C2)C1 [Vincristine]
Settings	EC50, CellTiter-Blue viability [nM]
MDA-MB-453 [1]	3.57

Settings	normalised viability [%]
BT-474 [2], 0.1 nM	97.2
BT-474 [2], 1 nM	41.5
BT-474 [16], 1000 nM	55.9
BT-474 [16], 10000 nM	47.9
BT-549, 0.1 nM	93.1
BT-549, 1 nM	93.5
CAL-51, 0.1 nM	103
CAL-51, 1 nM	93.8
CAL-85-1 [3], 0.1 nM	86.5
CAL-85-1 [3], 1 nM	91.8
CAL-85-1 [12], 0.3 nM	95.6
CAL-85-1 [12], 3 nM	86.1
CAL-85-1 [17], 10 nM	33.4
CAL-85-1 [17], 100 nM	39.2
CAL-120, 0.1 nM	77.9
CAL-120, 1 nM	57.7
CAL-148 [6], 0.1 nM	87.6
CAL-148 [6], 1 nM	108
CAL-148 [14], 0.3 nM	80.4
CAL-148 [14], 3 nM	85.3
CAL-148 [18], 10 nM	21.4
CAL-148 [18], 100 nM	20.6
DU-4475, 0.1 nM	97.6
DU-4475, 1 nM	88.9
HCC1143 [9], 0.1 nM	80
HCC1143 [9], 1 nM	89.6
HCC1143 [15], 1 nM	71
HCC1143 [15], 10 nM	40.7
HCC1599 [7], 0.1 nM	119
HCC1599 [7], 1 nM	93.9
HCC1599 [19], 1000 nM	73.7
HCC1599 [19], 10000 nM	45.7
HCC1937, 0.1 nM	74.4
HCC1937, 1 nM	79.4
HDQ-P1, 0.1 nM	90
HDQ-P1, 1 nM	95.3
Hs578T [8], 0.1 nM	120
Hs578T [8], 1 nM	92.6
Hs578T [20], 1000 nM	12.7
Hs578T [20], 10000 nM	15.9
MDA-MB-231 [10], 0.1 nM	95.8
MDA-MB-231 [10], 1 nM	82.5
MDA-MB-231 [21], 1000 nM	14.4
MDA-MB-231 [21], 10000 nM	14.5
MDA-MB-436, 0.1 nM	89.4
MDA-MB-436, 1 nM	109
MDA-MB-453 [5], 0.1 nM	107
MDA-MB-453 [5], 1 nM	88.5
MDA-MB-468 [11], 0.1 nM	87.5
MDA-MB-468 [11], 1 nM	49.2
MDA-MB-468 [22], 1000 nM	41.1
MDA-MB-468 [22], 10000 nM	38.4
MFM-223, 0.1 nM	99.7
MFM-223, 1 nM	91
SK-BR-3 [4], 0.1 nM	87.9
SK-BR-3 [4], 1 nM	25.5
SK-BR-3 [13], 1 nM	33.8
SK-BR-3 [13], 10 nM	15.9

CN(C)CCN1C(=O)c2cccc3cc(N)cc(c23)C1=O [Amonafide]
Settings	EC50, CellTiter-Blue viability [nM]
MDA-MB-453 [1]	4230

Settings	normalised viability [%]
BT-474 [2], 1 nM	103
BT-474 [16], 10000 nM	69.3
BT-549, 1 nM	94.4
CAL-51, 1 nM	107
CAL-85-1 [3], 1 nM	90
CAL-85-1 [12], 3 nM	91.6
CAL-85-1 [17], 100 nM	87.8
CAL-120, 1 nM	78.7
CAL-148 [6], 1 nM	89.9
CAL-148 [14], 3 nM	88.8
CAL-148 [18], 100 nM	84.7
DU-4475, 1 nM	99.6
HCC1143 [9], 1 nM	83.7
HCC1143 [15], 10 nM	83.6
HCC1599 [7], 1 nM	88.2
HCC1599 [19], 10000 nM	47.5
HCC1937, 1 nM	108
HDQ-P1, 1 nM	105
Hs578T [8], 1 nM	121
Hs578T [20], 10000 nM	47.6
MDA-MB-231 [10], 1 nM	93.1
MDA-MB-231 [21], 10000 nM	22.3
MDA-MB-436, 1 nM	102
MDA-MB-453 [5], 1 nM	87.3
MDA-MB-468 [11], 1 nM	110
MDA-MB-468 [22], 10000 nM	41.3
MFM-223, 1 nM	93
SK-BR-3 [4], 1 nM	101
SK-BR-3 [13], 10 nM	99.9
